Results on two molecules are retold here after PMC10683482, “Offsetting Low-Affinity Carbohydrate Binding with Covalency to Engage Sugar-Specific Proteins for Tumor-Immune Proximity Induction” (ACS Central Science, 2023).

This experiment deals with Hek-PSMA cells. Put plainly: ADCC reporter assay with polyclonal human IgG, column step (Figure 3). The format is cell-based. The conditions noted are these: 50 μM compound with 230 μM human IgG 72 h, column washing step. How it is done:
Next, we investigated the potential ability of rhamnose cARMs and noncovalent ARM analogs to induce immune proximity with cancer targets. […] These compounds were then evaluated for their capacity to activate immune cells against PSMA cancer targets (Hek-PSMA cells) in an ADCC reporter assay (Figure 3). […] The formation of this complex may be prevented by the alkyl linker, which could adopt a fixed conformation via hydrophobic collapse.
Figure 3 ADCC reporter assay to evaluate cARM vs ARM immune function using polyclonal anti-rhamnose antibodies. Top: chemical structures of compounds evaluated. Bottom: ADCC assay. Each cARM/ARM (50 μM) was incubated with polyclonal human IgG (230 μM) for 72 h and passed through a Millipore centrifugation column. Antibody solutions were then resuspended to experimental concentrations and added to preplated Hek-P cells (50,000 cells). To this cell solution, luciferase-expressing jurkat cells were added and incubated for 24 h. Activation of jurkat was determined as a measure of luciferase expression with a BioGlo assay kit.
General Notes and Materials
ELISA - General notes and Materials […]
Plate absorbance was measured at 450 nm using a Tecan Spark Plate Reader. […]
Pre-cast Tris-Glycine Gels (4-20%) were purchased from Fisher Scientific (XP04202BOX). […] Gel fluorescence was imaged using a GE Typhoon imager (Cy2 channel for fluorescein, Cy5 channel for A647). […]

With `C[C@@H]1O[C@@H](OCc2cn(CCc3cn(C(=O)OCCNC(=O)CCCCCNC(=O)CCCCCNC(=O)CCCCCNC(=O)NCCCC[C@H](NC(=O)N[C@@H](CCC(=O)O)C(=O)O)C(=O)O)cn3)nn2)[C@H](O)[C@H](O)[C@H]1O` [compound 10], the “immune activation (jurkat luciferase)” value is given as “successfully mediated specific immune activation”. With `C[C@@H]1O[C@@H](OCc2cn(CCCNC(=O)OCCNC(=O)CCCCCNC(=O)CCCCCNC(=O)CCCCCNC(=O)NCCCC[C@H](NC(=O)N[C@@H](CCC(=O)O)C(=O)O)C(=O)O)nn2)[C@H](O)[C@H](O)[C@H]1O` [compound 11], the “immune activation (jurkat luciferase)” value is “failed to induce immune activation”.
